What all share (test): biochemical
What all share (set-up): Eurofins KinaseProfiler full panel at Km ATP, residual kinase activity (%) relative to DMSO

One assay has as its target T1, PKR(h) (Homo sapiens, UniProt P19525).
T1 construct: gene EIF2AK2
The procedure, abridged: (§1)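 Two 10 µM single-concentration screens were run: a competition-binding screen, in which DNA-tagged kinase bound to immobilized ligands was quantified by qPCR, and a radiometric activity panel at Km ATP. Each is expressed as residual kinase activity (%).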

The next assay concerns the target T2, CHK2(R145W)(h) (Homo sapiens, UniProt O96017, R145W).
T2 construct: gene CHEK2
The procedure, abridged: as §1

The next assay concerns the target T3, LKB1(h) (Homo sapiens, UniProt Q15831).
T3 construct: gene STK11
T3 sequence (Q15831 1-433): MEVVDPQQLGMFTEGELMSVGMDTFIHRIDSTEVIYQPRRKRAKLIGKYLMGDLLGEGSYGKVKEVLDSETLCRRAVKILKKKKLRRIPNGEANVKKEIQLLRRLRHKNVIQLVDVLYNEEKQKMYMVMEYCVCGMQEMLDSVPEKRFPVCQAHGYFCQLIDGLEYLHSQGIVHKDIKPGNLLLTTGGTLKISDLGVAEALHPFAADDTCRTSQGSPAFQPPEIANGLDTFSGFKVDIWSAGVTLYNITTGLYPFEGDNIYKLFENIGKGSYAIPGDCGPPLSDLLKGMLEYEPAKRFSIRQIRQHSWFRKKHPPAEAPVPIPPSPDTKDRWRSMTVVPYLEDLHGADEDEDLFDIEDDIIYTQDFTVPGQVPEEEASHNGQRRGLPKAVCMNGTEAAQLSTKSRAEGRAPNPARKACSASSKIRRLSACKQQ
T3 sequence (Q7RTN6 1-431 partner): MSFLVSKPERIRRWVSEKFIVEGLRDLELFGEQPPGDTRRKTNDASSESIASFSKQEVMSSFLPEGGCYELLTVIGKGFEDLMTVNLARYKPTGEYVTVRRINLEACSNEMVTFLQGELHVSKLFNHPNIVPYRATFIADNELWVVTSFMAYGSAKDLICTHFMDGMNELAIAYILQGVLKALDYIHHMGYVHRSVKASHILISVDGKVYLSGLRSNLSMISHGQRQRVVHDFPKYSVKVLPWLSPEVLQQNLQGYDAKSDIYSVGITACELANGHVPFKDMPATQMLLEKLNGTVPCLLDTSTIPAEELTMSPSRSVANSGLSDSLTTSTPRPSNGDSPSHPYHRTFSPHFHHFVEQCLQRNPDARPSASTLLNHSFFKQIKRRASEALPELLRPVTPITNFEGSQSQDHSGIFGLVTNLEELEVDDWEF
T3 sequence (Q9Y376 1-341 partner): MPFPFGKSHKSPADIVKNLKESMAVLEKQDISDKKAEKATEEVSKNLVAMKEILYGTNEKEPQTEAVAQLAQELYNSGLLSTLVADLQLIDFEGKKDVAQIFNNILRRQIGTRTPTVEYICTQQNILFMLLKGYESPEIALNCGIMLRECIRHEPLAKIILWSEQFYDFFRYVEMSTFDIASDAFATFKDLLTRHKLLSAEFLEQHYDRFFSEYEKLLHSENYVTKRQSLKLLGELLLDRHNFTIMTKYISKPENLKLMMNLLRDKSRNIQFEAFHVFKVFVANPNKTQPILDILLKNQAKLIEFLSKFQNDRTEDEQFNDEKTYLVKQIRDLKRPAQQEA
The procedure, abridged: as §1

A further assay has as its target mTOR/FKBP12(h) (Homo sapiens, UniProt P42345). The procedure, abridged:
as §1

A further assay addresses T4, CHK2(I157T)(h) (Homo sapiens, UniProt O96017, I157T).
T4 construct: gene CHEK2
The procedure, abridged: as §1

Another assay deals with PAK3(h) (Homo sapiens, UniProt O75914). The procedure, abridged:
as §1

For another assay, the target named is CDK18/cyclinY(h) (Homo sapiens, UniProt Q07002). The procedure, abridged:
as §1

The target in another assay is AAK1(h) (Homo sapiens, UniProt Q2M2I8). The procedure, abridged: as §1
The target of the next assay is Met(h) (Homo sapiens, UniProt P08581). The procedure, abridged: as §1
Another assay deals with WNK4(h) (Homo sapiens, UniProt Q96J92). The procedure, abridged:
as §1

For the next assay, the target named is Lck(h) (Homo sapiens, UniProt P06239). The procedure, abridged: as §1
Lck(h), sequence (P06239 whole entry): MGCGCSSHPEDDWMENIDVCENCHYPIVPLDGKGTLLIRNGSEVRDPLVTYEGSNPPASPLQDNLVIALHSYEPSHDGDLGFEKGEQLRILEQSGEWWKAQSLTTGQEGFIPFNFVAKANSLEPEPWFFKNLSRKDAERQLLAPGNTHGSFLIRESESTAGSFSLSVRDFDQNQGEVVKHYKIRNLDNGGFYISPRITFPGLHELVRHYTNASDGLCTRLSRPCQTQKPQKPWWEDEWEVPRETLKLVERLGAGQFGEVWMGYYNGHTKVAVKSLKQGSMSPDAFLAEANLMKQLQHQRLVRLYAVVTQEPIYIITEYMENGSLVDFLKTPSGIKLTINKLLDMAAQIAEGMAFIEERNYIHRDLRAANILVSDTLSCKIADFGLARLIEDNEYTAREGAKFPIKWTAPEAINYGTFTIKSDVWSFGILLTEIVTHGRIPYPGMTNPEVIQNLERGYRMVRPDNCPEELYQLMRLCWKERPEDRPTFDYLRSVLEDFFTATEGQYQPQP
Another assay addresses FGFR3(h) (Homo sapiens, UniProt P22607). The procedure, abridged:
as §1

The mark [1] stands for this setting: read-out: Residual activity (%) Spautin-1 5aa.
Where [2] appears, read: read-out: Residual activity (%) 5as.
[3] abbreviates: read-out: Residual activity (%) 5at.
Setting [4] is: read-out: Residual activity (%) 5ay.

Where two headings read alike, the source gives them in different places.

T1 sequence (P19525 whole entry): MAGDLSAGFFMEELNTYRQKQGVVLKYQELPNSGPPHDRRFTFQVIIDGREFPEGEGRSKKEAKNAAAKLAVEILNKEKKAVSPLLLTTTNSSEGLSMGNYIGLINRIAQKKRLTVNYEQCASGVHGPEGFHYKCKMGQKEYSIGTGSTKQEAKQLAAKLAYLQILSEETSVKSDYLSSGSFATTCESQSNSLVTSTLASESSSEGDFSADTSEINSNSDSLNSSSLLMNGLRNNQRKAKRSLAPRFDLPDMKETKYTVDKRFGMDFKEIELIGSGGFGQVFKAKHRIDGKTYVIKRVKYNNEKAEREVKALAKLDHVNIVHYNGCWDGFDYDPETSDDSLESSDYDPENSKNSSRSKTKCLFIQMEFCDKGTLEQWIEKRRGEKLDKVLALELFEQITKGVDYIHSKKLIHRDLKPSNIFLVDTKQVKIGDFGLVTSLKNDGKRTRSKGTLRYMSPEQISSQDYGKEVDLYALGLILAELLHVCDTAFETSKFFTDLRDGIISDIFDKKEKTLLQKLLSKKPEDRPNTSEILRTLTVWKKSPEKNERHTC
T2 sequence (O96017 whole entry R145W): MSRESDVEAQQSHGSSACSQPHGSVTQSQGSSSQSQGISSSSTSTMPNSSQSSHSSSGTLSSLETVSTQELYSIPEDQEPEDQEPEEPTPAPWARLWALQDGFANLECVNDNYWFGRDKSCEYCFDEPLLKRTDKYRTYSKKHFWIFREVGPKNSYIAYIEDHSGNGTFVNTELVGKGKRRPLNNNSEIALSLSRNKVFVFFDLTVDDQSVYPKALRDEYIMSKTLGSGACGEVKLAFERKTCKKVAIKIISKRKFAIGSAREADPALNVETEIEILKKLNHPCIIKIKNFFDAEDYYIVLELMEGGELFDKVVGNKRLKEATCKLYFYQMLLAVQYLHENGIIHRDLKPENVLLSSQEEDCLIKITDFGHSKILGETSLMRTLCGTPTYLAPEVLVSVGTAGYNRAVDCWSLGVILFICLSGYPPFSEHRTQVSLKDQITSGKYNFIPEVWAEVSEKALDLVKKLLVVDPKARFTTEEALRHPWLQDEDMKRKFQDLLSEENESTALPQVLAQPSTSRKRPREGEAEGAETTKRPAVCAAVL
CDK18/cyclinY(h), sequence (Q07002 whole entry): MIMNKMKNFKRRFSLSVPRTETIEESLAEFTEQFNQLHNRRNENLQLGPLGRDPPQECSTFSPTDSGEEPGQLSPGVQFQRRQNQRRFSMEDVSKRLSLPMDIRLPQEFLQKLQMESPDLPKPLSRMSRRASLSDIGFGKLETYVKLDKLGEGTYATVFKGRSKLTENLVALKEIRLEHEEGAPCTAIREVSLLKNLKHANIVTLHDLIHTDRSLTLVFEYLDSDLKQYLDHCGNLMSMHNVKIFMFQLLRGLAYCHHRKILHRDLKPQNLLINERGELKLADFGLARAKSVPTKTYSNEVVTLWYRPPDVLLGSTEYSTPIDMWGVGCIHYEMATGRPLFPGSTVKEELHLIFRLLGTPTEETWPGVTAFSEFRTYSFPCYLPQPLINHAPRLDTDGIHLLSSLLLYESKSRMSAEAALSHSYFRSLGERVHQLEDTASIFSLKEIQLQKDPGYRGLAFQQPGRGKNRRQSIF
CDK18/cyclinY(h), sequence (Q8ND76 whole entry partner): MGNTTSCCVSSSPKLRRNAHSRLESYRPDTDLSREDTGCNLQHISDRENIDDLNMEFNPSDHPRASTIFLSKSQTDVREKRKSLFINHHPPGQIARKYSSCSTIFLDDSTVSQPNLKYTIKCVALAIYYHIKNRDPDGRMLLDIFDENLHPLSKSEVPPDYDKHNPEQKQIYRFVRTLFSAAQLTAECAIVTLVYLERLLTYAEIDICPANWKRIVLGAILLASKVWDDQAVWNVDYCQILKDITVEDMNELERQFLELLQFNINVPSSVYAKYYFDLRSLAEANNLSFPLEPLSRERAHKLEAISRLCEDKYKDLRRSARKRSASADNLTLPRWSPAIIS
PAK3(h), sequence (O75914 whole entry): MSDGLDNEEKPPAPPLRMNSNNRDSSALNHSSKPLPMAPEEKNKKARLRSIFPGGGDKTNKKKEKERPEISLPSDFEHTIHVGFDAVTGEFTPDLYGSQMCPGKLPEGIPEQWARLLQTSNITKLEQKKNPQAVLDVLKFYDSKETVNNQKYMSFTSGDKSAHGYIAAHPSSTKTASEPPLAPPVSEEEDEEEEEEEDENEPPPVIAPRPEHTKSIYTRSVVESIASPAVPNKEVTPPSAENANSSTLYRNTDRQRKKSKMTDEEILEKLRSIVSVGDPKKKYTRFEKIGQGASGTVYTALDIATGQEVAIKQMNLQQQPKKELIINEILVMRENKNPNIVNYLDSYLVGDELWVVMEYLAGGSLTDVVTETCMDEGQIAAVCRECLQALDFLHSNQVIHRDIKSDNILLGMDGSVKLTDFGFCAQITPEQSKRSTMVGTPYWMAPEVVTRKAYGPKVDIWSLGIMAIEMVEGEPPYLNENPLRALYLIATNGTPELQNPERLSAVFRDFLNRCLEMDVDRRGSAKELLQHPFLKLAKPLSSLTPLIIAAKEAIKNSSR
FGFR3(h), sequence (P22607 whole entry): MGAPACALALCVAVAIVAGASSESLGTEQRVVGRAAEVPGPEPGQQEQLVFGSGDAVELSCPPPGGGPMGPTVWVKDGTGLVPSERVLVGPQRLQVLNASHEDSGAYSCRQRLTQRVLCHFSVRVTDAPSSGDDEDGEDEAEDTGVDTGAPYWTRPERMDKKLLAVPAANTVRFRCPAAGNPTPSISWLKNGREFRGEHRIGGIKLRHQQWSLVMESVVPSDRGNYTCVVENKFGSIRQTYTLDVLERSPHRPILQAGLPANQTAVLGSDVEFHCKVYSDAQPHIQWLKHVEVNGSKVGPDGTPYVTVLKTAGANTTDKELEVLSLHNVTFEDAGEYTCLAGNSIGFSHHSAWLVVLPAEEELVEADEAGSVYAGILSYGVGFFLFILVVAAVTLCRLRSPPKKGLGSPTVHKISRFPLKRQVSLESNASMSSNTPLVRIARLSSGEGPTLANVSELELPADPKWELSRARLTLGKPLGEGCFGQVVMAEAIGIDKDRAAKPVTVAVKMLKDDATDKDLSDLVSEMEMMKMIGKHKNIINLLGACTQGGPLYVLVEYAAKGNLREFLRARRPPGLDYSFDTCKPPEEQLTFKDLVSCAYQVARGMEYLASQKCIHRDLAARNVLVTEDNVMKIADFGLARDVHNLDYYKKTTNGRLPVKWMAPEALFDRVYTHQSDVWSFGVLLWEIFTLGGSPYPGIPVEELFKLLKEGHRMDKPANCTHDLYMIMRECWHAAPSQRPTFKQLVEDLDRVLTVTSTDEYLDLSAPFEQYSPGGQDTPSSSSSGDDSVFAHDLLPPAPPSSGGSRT
WNK4(h), sequence (Q96J92 whole entry): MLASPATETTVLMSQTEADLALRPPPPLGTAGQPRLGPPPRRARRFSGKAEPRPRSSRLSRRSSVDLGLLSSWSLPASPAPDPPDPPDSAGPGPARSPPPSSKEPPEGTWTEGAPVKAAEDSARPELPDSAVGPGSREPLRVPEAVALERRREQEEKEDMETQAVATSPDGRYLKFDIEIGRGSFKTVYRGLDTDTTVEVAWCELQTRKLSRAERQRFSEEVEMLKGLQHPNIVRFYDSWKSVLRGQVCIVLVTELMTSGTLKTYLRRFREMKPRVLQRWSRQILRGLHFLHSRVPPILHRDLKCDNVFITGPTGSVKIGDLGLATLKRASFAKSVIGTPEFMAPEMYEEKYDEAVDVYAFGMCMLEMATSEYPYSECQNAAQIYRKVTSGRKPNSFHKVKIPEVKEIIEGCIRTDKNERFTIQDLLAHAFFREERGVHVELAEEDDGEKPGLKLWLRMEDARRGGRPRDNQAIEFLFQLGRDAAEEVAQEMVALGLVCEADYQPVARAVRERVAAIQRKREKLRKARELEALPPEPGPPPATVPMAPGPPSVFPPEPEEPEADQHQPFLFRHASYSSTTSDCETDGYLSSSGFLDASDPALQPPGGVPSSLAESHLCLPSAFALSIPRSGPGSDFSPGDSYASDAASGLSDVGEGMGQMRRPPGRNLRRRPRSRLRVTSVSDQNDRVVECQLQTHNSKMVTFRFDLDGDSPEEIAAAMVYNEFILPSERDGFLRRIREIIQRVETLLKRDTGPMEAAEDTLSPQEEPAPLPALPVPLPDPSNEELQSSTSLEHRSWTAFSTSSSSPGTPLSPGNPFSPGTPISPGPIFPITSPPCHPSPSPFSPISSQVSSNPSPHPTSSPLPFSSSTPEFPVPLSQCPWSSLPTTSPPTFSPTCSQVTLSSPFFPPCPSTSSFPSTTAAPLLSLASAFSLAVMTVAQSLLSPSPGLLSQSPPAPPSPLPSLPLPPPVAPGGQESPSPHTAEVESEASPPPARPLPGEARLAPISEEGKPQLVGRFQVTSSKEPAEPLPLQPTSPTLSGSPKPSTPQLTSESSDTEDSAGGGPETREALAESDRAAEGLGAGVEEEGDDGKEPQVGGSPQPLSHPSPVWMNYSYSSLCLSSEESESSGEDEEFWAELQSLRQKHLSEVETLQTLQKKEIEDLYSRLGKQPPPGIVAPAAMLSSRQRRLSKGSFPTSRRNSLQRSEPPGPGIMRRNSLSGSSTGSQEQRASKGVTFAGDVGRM

For the compound `Fc1ccc(CNc2ncnc3ccc(F)cc23)cc1` [5aa, 6-Fluoro-N-(4-fluorobenzyl)-4-Quinazolinamine], the remaining activity at 10 µM worked out at 100% on PKR(h) (setting [1]); 101% at CHK2(R145W)(h) (setting [1]); 86% at LKB1(h) (setting [1]); 100% on mTOR/FKBP12(h) (setting [1]); 88% at CHK2(I157T)(h) (setting [1]); 96% on PAK3(h) (setting [1]). Besides, the remaining activity at 10 µM was determined as 87% on CDK18/cyclinY(h) (setting [1]); 95% on AAK1(h) (setting [1]); 82% at Met(h) (setting [1]); 105% on WNK4(h) (setting [1]); 90% on Lck(h) (setting [1]); 97% on FGFR3(h) (setting [1]).

Consider `Fc1ccc(CCNc2ncnc3ccc(F)cc23)cc1` [5as, 6-Fluoro-N-[2-(4-Fluorophenyl)Ethyl]-4-Quinazolinamine], for which the remaining activity at 10 µM at PKR(h) (setting [2]) was 98%; at CHK2(R145W)(h) (setting [2]), 90%; on LKB1(h) (setting [2]), 81%; at mTOR/FKBP12(h) (setting [2]), 89%; at CHK2(I157T)(h) (setting [2]) it was 105%; at PAK3(h) (setting [2]), 107%. In addition, the remaining activity at 10 µM on CDK18/cyclinY(h) (setting [2]) was found to be 102%; at AAK1(h) (setting [2]) it was 81%; on Met(h) (setting [2]), 57%; on WNK4(h) (setting [2]), 94%; at Lck(h) (setting [2]), 94%; at FGFR3(h) (setting [2]), 108%.

Consider `Fc1ccc2ncnc(NCCc3ccc(Cl)cc3)c2c1` [5at, N-[2-(4-Chlorophenyl)Ethyl]-6-Fluoro-4-Quinazolinamine], for which the remaining activity at 10 µM at PKR(h) (setting [3]) was 94%; on CHK2(R145W)(h) (setting [3]), 91%; at LKB1(h) (setting [3]) it was 73%; at mTOR/FKBP12(h) (setting [3]), 94%; on CHK2(I157T)(h) (setting [3]), 99%; at PAK3(h) (setting [3]), 93%. The remaining activity at 10 µM on CDK18/cyclinY(h) (setting [3]) was 116%; on AAK1(h) (setting [3]), 72%; on Met(h) (setting [3]), 112%; at WNK4(h) (setting [3]), 92%; at Lck(h) (setting [3]), 82%; at FGFR3(h) (setting [3]), 99%.

As for `COc1ccc2ncnc(Nc3cccc(F)c3)c2c1` [5ay, N-(3-Fluorophenyl)-6-Methoxy-4-Quinazolinamine], the remaining activity at 10 µM was 71% on PKR(h) (setting [4]); 87% at CHK2(R145W)(h) (setting [4]); 100% on LKB1(h) (setting [4]); 88% on mTOR/FKBP12(h) (setting [4]); 91% at CHK2(I157T)(h) (setting [4]); 99% at PAK3(h) (setting [4]). The remaining activity at 10 µM on CDK18/cyclinY(h) (setting [4]) turned out to be 86%; at AAK1(h) (setting [4]), 53%; at Met(h) (setting [4]), 72%; on WNK4(h) (setting [4]), 100%; on Lck(h) (setting [4]), 78%; at FGFR3(h) (setting [4]), 94%.

For the origin of these results see publication PMC7827406, “Structure–Activity Relationship (SAR) Study of Spautin-1 to Entail the Discovery of Novel NEK4 Inhibitors” (International Journal of Molecular Sciences, 2021).
